# Reference: ChEMBL document CHEMBL4613208, “Isatin derivatives and their anti-bacterial activities” (Eur J Med Chem, 2019)
# Legend:
# [1] = test system: Staphylococcus aureus; test: Antibacterial activity against Staphylococcus aureus; assay type: functional, organism-based
# [2] = test system: Escherichia coli; test: Antibacterial activity against Escherichia coli; assay type: functional, organism-based
# [3] = test system: Pseudomonas aeruginosa; test: Antibacterial activity against Pseudomonas aeruginosa; assay type: functional, organism-based
# [4] = test system: Salmonella typhi; test: Antibacterial activity against Salmonella typhi; assay type: functional, Salmonella enterica subsp. enterica serovar Typhi; details: Salmonella enterica
# [5] = test system: Staphylococcus aureus; test: Antibacterial activity against Staphylococcus aureus after 24 hrs by paper disc diffusion technique; assay type: functional; details: Staphylococcus aureus, 24 h; read-out: MIC
# [6] = test system: Pseudomonas aeruginosa; test: Antibacterial activity against Pseudomonas aeruginosa after 24 hrs by paper disc diffusion technique; assay type: functional; details: Pseudomonas aeruginosa, 24 h; read-out: MIC
# [7] = test system: Escherichia coli; test: Antibacterial activity against Escherichia coli after 24 hrs by paper disc diffusion technique; assay type: functional; details: Escherichia coli, 24 h; read-out: MIC
# [8] = test system: Micrococcus luteus; test: Antibacterial activity against Micrococcus luteus after 24 hrs by paper disc diffusion technique; assay type: functional; details: Micrococcus luteus, 24 h; read-out: MIC
# [9] = test system: Klebsiella pneumoniae; test: Antibacterial activity against Klebsiella pneumoniae after 24 hrs by paper disc diffusion technique; assay type: functional; details: Klebsiella pneumoniae, 24 h; read-out: MIC
# [10] = test system: Staphylococcus epidermidis; test: Antibacterial activity against Staphylococcus epidermidis after 24 hrs by paper disc diffusion technique; assay type: functional; details: Staphylococcus epidermidis, 24 h; read-out: MIC
# [11] = test system: Escherichia coli; test: Antibacterial activity against Escherichia coli assessed as zone of inhibition at 100 ug/ml; assay type: functional; details: for zone of inhibition at 100 µg/mL: read-out: IZ
# [12] = test system: Staphylococcus aureus; test: Antibacterial activity against Staphylococcus aureus assessed as zone of inhibition at 100 ug/ml; assay type: functional; details: for zone of inhibition at 100 µg/mL: read-out: IZ
# [13] = test system: Pseudomonas aeruginosa; test: Antibacterial activity against Pseudomonas aeruginosa assessed as zone of inhibition at 100 ug/ml; assay type: functional; details: for zone of inhibition at 100 µg/mL: read-out: IZ
# [14] = test system: Bacillus cereus; test: Antibacterial activity against Bacillus cereus assessed as zone of inhibition at 100 ug/ml; assay type: functional; details: for zone of inhibition at 100 µg/mL: read-out: IZ
Compound,MIC [3],MIC [4] [nM],zone of inhibition at 100 µg/mL [11] [mm],zone of inhibition at 100 µg/mL [12] [mm],zone of inhibition at 100 µg/mL [13] [mm],zone of inhibition at 100 µg/mL [14] [mm],further results
Cc1c(C)c2c(c(C)c1O)CCC(C)(C(=O)N/N=C1\C(=O)Nc3ccccc31)O2 (stereo not drawn),12.5 to 100 µg/mL,,,,,,MIC [1]: 12.5 to 100 µg/mL; MIC [2]: 12.5 to 100 µg/mL
COc1ccc(NC(=O)CN2C(=O)/C(=N\c3cc(C)ccc3C)c3ccccc32)cc1,3 to 324 nM,3 to 324,,,,,
Cc1ccc(NC(=O)CN2C(=O)/C(=N\c3cc(C)ccc3C)c3ccccc32)c(C)c1,3 to 15 nM,3 to 15,,,,,
Cc1c(C)c2c(c(C)c1O)CCC(C)(C(=O)N/N=C1\C(=O)Nc3ccc(Cl)cc31)O2 (stereo not drawn),12.5 to 100 µg/mL,,,,,,MIC [1]: 12.5 to 100 µg/mL; MIC [2]: 12.5 to 100 µg/mL
Cc1c(C)c2c(c(C)c1O)CCC(C)(C(=O)N/N=C1\C(=O)Nc3ccc(Br)cc31)O2 (stereo not drawn),12.5 to 100 µg/mL,,,,,,MIC [1]: 12.5 to 100 µg/mL; MIC [2]: 12.5 to 100 µg/mL
O=C(O)c1cn(C2CC2)c2cc(N3CCN(CN4C(=O)/C(=N/c5ccc(/N=C/c6ccc([N+](=O)[O-])cc6)cc5)c5cc(F)ccc54)CC3)c(F)cc2c1=O,,,,,,,MIC [5]: 7.81 to 125 µg/mL; MIC [6]: 7.81 to 125 µg/mL; MIC [7]: 7.81 to 125 µg/mL; MIC [8]: 7.81 to 125 µg/mL; MIC [9]: 7.81 to 125 µg/mL; MIC [10]: 7.81 to 125 µg/mL
Cc1ccc(C)c(/N=C2\C(=O)N(CC(=O)Nc3cc(C)ccc3C)c3ccccc32)c1,3 to 324 nM,3 to 324,,,,,
O=C1Nc2ccccc2/C1=N/NC(=O)c1cccc(Br)c1,,,,,,,IC50 [1]: 30 to 50 µM; IC50 [2]: 30 to 50 µM; IC50 [3]: 30 to 50 µM
Cc1c(C)c2c(c(C)c1O)CCC(C)(C(=O)N/N=C1\C(=O)N(C)c3ccc(Cl)cc31)O2 (stereo not drawn),12.5 to 100 µg/mL,,,,,,MIC [1]: 12.5 to 100 µg/mL; MIC [2]: 12.5 to 100 µg/mL
Cc1c(C)c2c(c(C)c1O)CCC(C)(C(=O)N/N=C1\C(=O)N(C)c3ccccc31)O2 (stereo not drawn),12.5 to 100 µg/mL,,,,,,MIC [1]: 12.5 to 100 µg/mL; MIC [2]: 12.5 to 100 µg/mL
Cc1c(C)c2c(c(C)c1O)CCC(C)(C(=O)N/N=C1\C(=O)Nc3cc(Cl)ccc31)O2 (stereo not drawn),12.5 to 100 µg/mL,,,,,,MIC [1]: 12.5 to 100 µg/mL; MIC [2]: 12.5 to 100 µg/mL
Cc1ccccc1NC(=O)CN1C(=O)/C(=N\c2ccccc2)c2ccccc21,3 to 324 nM,3 to 324,,,,,
Cc1nc2ccccc2cc1C(=O)N/N=C1\C(=O)Nc2ccccc21,,,6 to 19,6 to 19,6 to 19,6 to 19,
Cc1ccc(C2C(Cl)C(=O)N2c2ccc(OCC(=O)N/N=C3\C(=O)N(CN4CCCCC4)c4ccccc43)c3ncccc23)cc1 (stereo not drawn),,,6 to 19,6 to 19,6 to 19,6 to 19,
Cc1nc2ccccc2cc1C(=O)N/N=C1\C(=O)Nc2cccc(Cl)c21,,,6 to 19,6 to 19,6 to 19,6 to 19,
Cc1ccc(NC(=O)CN2C(=O)/C(=N\c3ccccc3)c3ccccc32)c(C)c1,3 to 324 nM,3 to 324,,,,,
CC[C@H]1OC(=O)[C@H](C)[C@@H](O[C@H]2C[C@@](C)(OC)[C@@H](O)[C@H](C)O2)[C@H](C)[C@@H](O[C@@H]2O[C@H](C)C[C@H](N(C)C)[C@H]2O)[C@](C)(O)C[C@@H](C)CN(C)[C@H](C)[C@@H](O)[C@]1(C)O [AZITHROMYCIN],6.25 to 12.5 µg/mL,,,,,,MIC [1]: 6.25 to 12.5 µg/mL; MIC [2]: 6.25 to 12.5 µg/mL
O=C(COc1ccc(N2C(=O)CSC2c2ccc(Br)cc2)c2cccnc12)N/N=C1\C(=O)N(CN2CCCCC2)c2ccccc21 (stereo not drawn),,,6 to 19,6 to 19,6 to 19,6 to 19,
GENTAMICIN,,,,,,,inhibition zone (IZ) [11]: 19 to 27 mm; inhibition zone (IZ) [12]: 19 to 27 mm; inhibition zone (IZ) [13]: 19 to 27 mm; inhibition zone (IZ) [14]: 19 to 27 mm
O=C(COc1ccc(N2C(=O)C(Cl)C2c2ccccc2)c2cccnc12)N/N=C1\C(=O)N(CN2CCCCC2)c2ccccc21 (stereo not drawn),,,6 to 19,6 to 19,6 to 19,6 to 19,
O=C(COc1ccc(N2C(=O)C(Cl)C2c2ccc([N+](=O)[O-])cc2)c2cccnc12)N/N=C1\C(=O)N(CN2CCCCC2)c2ccccc21 (stereo not drawn),,,6 to 19,6 to 19,6 to 19,6 to 19,

Compound,MIC [3],MIC [4] [nM],zone of inhibition at 100 µg/mL [11] [mm],zone of inhibition at 100 µg/mL [12] [mm],zone of inhibition at 100 µg/mL [13] [mm],zone of inhibition at 100 µg/mL [14] [mm],further results
O=C(COc1ccc(N2C(=O)CSC2c2ccc(Cl)cc2)c2cccnc12)N/N=C1\C(=O)N(CN2CCCCC2)c2ccccc21 (stereo not drawn),,,6 to 19,6 to 19,6 to 19,6 to 19,
Cc1ccc(NC(=O)CN2C(=O)/C(=N\c3cc(C)ccc3C)c3ccccc32)cc1,3 to 324 nM,3 to 324,,,,,
O=C(COc1ccc(N2C(=O)C(Cl)C2c2ccccc2)c2cccnc12)N/N=C1\C(=O)N(CN2CCOCC2)c2ccccc21 (stereo not drawn),,,6 to 19,6 to 19,6 to 19,6 to 19,
O=C(CN1C(=O)/C(=N\c2ccccc2)c2ccccc21)Nc1ccccc1,3 to 324 nM,3 to 324,,,,,
Cc1ccc(C)c(/N=C2\C(=O)N(CC(=O)Nc3ccccc3)c3ccccc32)c1,3 to 324 nM,3 to 324,,,,,
COc1cccc(NC(=O)CN2C(=O)/C(=N\c3ccccc3)c3ccccc32)c1,3 to 324 nM,3 to 324,,,,,
Cc1ccc(NC(=O)CN2C(=O)/C(=N\c3ccccc3)c3ccccc32)cc1C,3 to 324 nM,3 to 324,,,,,
Cc1nc2ccccc2cc1C(=O)N/N=C1\C(=O)Nc2ccc(Cl)c(Cl)c21,,,6 to 19,6 to 19,6 to 19,6 to 19,
COc1cccc(NC(=O)CN2C(=O)/C(=N\c3cc(C)ccc3C)c3ccccc32)c1,3 to 15 nM,3 to 15,,,,,
Cc1nc2ccccc2cc1C(=O)N/N=C1\C(=O)Nc2c(Br)ccc(Br)c21,,,6 to 19,6 to 19,6 to 19,6 to 19,
CC1(C)S[C@@H]2[C@H](NC(=O)Cc3ccccc3)C(=O)N2[C@H]1C(=O)O [PENICILLIN G],,,,,,,IC50 [1]: 631 µM; IC50 [2]: 631 µM; IC50 [3]: 631 µM
Cc1ccc(NC(=O)CN2C(=O)/C(=N\c3ccccc3)c3ccccc32)cc1,3 to 324 nM,3 to 324,,,,,
Cc1ccc(C)c(/N=C2\C(=O)N(CC(=O)Nc3ccc(C)c(C)c3)c3ccccc32)c1,3 to 324 nM,3 to 324,,,,,
O=C(COc1ccc(N2C(=O)CSC2c2ccc([N+](=O)[O-])cc2)c2cccnc12)N/N=C1\C(=O)N(CN2CCCCC2)c2ccccc21 (stereo not drawn),,,6 to 19,6 to 19,6 to 19,6 to 19,
COc1ccc(C2C(Cl)C(=O)N2c2ccc(OCC(=O)N/N=C3\C(=O)N(CN4CCCCC4)c4ccccc43)c3ncccc23)cc1 (stereo not drawn),,,6 to 19,6 to 19,6 to 19,6 to 19,
Cc1ccc(C)c(/N=C2\C(=O)N(CC(=O)Nc3ccccc3C)c3ccccc32)c1,3 to 324 nM,3 to 324,,,,,
Cc1nc2ccccc2cc1C(=O)N/N=C1\C(=O)Nc2c(Br)cccc21,,,6 to 19,6 to 19,6 to 19,6 to 19,
O=C(COc1ccc(N2C(=O)C(Cl)C2c2ccc(Cl)cc2)c2cccnc12)N/N=C1\C(=O)N(CN2CCCCC2)c2ccccc21 (stereo not drawn),,,6 to 19,6 to 19,6 to 19,6 to 19,
Cc1ccc(C)c(NC(=O)CN2C(=O)/C(=N\c3ccccc3)c3ccccc32)c1,3 to 324 nM,3 to 324,,,,,
COc1ccc(NC(=O)CN2C(=O)/C(=N\c3ccccc3)c3ccccc32)cc1,3 to 324 nM,3 to 324,,,,,
Cc1c(C)c2c(c(C)c1O)CCC(C)(C(=O)N/N=C1\C(=O)Nc3ccc(F)cc31)O2 (stereo not drawn),12.5 to 100 µg/mL,,,,,,MIC [1]: 12.5 to 100 µg/mL; MIC [2]: 12.5 to 100 µg/mL
